Experimental data taken from PMC7503225, “Repositioning Dequalinium as Potent Muscarinic Allosteric Ligand by Combining Virtual Screening Campaigns and Experimental Binding Assays” (International Journal of Molecular Sciences, 2020).
Read-outs that look alike come from different tables or passages of the source.

How the values were obtained:
[1] = ref DrugBank [16]; cited from earlier work
[2] = target: T1, hM5 muscarinic receptor (Homo sapiens, UniProt P08912); assay: Equilibrium inhibition binding with [3H]-NMS, CHO cell membranes
T1 construct: expressed in transfected cells; host or cells: CHO cells, stably transfected; membrane fractions
T1 sequence (P08912 1-532): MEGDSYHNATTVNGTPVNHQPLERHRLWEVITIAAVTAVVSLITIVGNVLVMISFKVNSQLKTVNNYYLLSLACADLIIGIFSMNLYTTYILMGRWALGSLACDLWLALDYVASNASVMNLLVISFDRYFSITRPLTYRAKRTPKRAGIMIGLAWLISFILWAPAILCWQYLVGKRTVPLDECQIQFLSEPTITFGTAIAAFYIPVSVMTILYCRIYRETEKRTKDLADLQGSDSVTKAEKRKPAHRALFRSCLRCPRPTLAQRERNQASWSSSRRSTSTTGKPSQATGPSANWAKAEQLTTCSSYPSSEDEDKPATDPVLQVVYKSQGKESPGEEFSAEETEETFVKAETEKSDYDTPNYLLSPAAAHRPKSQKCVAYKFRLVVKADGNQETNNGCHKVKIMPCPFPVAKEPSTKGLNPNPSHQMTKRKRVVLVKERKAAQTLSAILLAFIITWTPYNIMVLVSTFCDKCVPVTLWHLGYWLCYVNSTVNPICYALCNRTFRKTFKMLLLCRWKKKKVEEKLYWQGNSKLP
Experimental: (§1) All tested compounds were purchased from Merck KGaA (Darmstadt, Germany). The radioligand binding experiments were performed with membranes from Chinese Hamster Ovary (CHO) cells stably transfected with the five cloned human muscarinic receptor subtypes (hM1-5). Membrane fractions were prepared according to the protocol, which have been previously described; membranes were stored at −80 °C until use. Nonspecific binding was defined by the radioactivity bound in the presence of 10 µM atropine.
(§2) Aliquots of membranes (25–70 µg/mL) were added and incubated for 2 h at room temperature, filtered through UniFilter GF/B plates (PerkinElmer Life and Analytical Science, Monza, Italy) using a FilterMate cell harvester (PerkinElmer Life and Analytical Science, Monza, Italy). The filters were washed several times with ice-cold MilliQ water. Then, the plates were counted in a β-counter (TopCount NXT microplate scintillation counter, PerkinElmer Life and Analytical Science, Monza, Italy).
(§3) Data points from radioligand inhibition binding curve were fitted to models using nonlinear regression equation to determine inhibitor potency (IC50) estimates, which were then converted to Ki values as appropriate.
(§4) All the results are expressed as means ± SEM obtained from 3-4 independent experiments each one performed in duplicate.

[3] = target: T2, hM4 muscarinic receptor (Homo sapiens, UniProt P08173); assay: as above
T2 construct: expressed in transfected cells; host or cells: CHO cells, stably transfected; membrane fractions
T2 sequence (P08173 1-479): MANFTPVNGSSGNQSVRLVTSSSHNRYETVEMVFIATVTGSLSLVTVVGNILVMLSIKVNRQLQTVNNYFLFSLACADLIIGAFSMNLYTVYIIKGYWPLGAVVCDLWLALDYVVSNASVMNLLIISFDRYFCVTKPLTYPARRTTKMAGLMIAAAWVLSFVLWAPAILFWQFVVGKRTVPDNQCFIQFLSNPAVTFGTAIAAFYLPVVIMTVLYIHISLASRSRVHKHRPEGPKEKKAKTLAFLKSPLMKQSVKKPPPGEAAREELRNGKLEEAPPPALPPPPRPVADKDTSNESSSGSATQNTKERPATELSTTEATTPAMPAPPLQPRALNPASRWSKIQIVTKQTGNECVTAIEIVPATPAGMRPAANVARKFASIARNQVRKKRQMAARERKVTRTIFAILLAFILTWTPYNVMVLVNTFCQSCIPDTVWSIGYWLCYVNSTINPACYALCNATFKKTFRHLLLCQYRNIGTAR
Experimental: as §1, §2, §3, §4

[4] = target: T3, [3H]-NMS-occupied muscarinic hM2 subtype (Homo sapiens, UniProt P08172); assay: One point kinetic (off-rate) assay of [3H]-NMS dissociation; type: binding; conditions: for Kd: read-out: Log Kocc hM2 (converted)
T3 construct: expressed in transfected cells; host or cells: CHO cells, stably transfected; membrane fractions
T3 sequence (P08172 1-466): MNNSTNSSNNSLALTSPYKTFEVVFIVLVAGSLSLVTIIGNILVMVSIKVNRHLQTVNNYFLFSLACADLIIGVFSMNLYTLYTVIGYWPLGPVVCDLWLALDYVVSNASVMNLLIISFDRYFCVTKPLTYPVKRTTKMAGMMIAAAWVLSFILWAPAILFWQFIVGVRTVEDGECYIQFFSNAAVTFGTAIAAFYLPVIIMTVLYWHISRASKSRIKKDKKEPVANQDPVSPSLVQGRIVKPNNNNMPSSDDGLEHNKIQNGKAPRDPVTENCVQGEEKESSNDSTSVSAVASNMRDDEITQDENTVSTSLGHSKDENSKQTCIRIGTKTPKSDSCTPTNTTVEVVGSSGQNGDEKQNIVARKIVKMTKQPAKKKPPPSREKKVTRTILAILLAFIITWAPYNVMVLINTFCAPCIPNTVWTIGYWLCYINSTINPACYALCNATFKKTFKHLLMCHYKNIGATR
Experimental: as §1
Off-rate assays were performed as described elsewhere to estimate the affinity of the ligands for the [^3H]-NMS-occupied receptor (log Kocc). Briefly, a high concentration of membranes (about 0.1 mg/mL) was incubated with a high concentration of [^3H]-NMS (2 nM) for 60 min at room temperature (mix membrane). Next, 100 µL aliquots were distributed into polypropylene tubes that were empty or in a final volume of 1 mL binding buffer with 1 µM atropine alone and in the presence of a range of concentrations of tested compound (1 nM–0.1 mM).
The effect on the radioligand dissociation of each tested ligand was determined at 0 min and at one time point, which was chosen to be ca 2.5 dissociation half-lives of [^3H]-NMS alone from each subtype receptors. Later (80 min for hM1, 20 min for hM2 and 70 min for hM5), the samples were filtered and counted as previously reported. Non specific binding was measured as previously reported.
as §4

[5] = target: T4, hM1 muscarinic receptor (Homo sapiens, UniProt P11229); assay: Equilibrium inhibition binding with [3H]-NMS, CHO cell membranes; conditions: [3H]-NMS 0.2 nM, mean ± SEM of 3-4 experiments, read-out: pKi hM1 (converted)
T4 construct: expressed in transfected cells; host or cells: CHO cells, stably transfected; membrane fractions
T4 sequence (P11229 1-460): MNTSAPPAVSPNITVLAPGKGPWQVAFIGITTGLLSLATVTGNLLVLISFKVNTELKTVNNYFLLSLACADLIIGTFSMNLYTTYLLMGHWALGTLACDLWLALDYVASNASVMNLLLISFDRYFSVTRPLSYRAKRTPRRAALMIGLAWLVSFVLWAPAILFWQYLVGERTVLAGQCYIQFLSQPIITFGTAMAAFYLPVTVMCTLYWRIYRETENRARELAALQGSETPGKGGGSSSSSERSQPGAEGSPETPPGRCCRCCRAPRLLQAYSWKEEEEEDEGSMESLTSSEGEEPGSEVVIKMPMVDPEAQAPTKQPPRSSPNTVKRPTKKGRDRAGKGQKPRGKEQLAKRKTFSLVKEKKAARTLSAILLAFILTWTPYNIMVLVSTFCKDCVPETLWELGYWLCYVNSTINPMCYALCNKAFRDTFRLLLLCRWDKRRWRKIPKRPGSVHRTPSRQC
Experimental: as §1, §2, §3, §4

[6] = target: T5, hM3 muscarinic receptor (Homo sapiens, UniProt P20309); assay: as above; conditions: [3H]-NMS 0.2 nM, mean ± SEM of 3-4 experiments, read-out: pKi hM3 (converted)
T5 construct: expressed in transfected cells; host or cells: CHO cells, stably transfected; membrane fractions
Experimental: as §1, §2, §3, §4

[7] = target: T6, hM2 muscarinic receptor (Homo sapiens, UniProt P08172); assay: as above; conditions: [3H]-NMS 0.2 nM, mean ± SEM of 3-4 experiments, read-out: pKi hM2 (converted)
T6 construct: expressed in transfected cells; host or cells: CHO cells, stably transfected; membrane fractions
T6 sequence (P08172 1-466): T3 sequence (P08172 1-466)
Experimental: as §1, §2, §3, §4

[8] = target: five human muscarinic receptors subtypes (hM1–hM5); assay: Equilibrium binding, summary statements over the five subtypes
Experimental: as §1, §2, §3, §4

[9] = [3H]-NMS 0.2 nM, CHO membranes, mean ± SEM of 3-4 experiments, read-out: pKi hM5 (converted)
[10] = [3H]-NMS 0.2 nM, CHO membranes, mean ± SEM of 3-4 experiments, read-out: pKi hM4 (converted)

T5 sequence (P20309 whole entry): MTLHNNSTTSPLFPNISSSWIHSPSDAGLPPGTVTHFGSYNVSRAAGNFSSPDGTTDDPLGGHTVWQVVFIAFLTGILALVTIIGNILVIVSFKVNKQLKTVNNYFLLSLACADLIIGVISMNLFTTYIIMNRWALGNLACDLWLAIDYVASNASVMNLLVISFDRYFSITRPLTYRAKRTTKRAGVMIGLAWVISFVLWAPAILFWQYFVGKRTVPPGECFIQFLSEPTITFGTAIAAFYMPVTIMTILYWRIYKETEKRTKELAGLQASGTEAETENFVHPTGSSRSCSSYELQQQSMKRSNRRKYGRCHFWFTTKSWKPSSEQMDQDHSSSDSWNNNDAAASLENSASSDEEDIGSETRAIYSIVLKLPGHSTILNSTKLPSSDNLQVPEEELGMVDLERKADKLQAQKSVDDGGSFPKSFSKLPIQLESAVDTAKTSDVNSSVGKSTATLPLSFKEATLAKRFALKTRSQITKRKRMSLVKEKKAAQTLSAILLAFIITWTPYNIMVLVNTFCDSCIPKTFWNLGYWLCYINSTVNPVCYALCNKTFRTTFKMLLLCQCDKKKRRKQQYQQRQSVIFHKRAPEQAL

CC#CCC(C)[C@H](O)/C=C/[C@@H]1[C@H]2C/C(=C/CCCC(=O)O)C[C@H]2C[C@H]1O (stereo partly drawn) [iloprost]
logP [1]: 4.2

CCNC(=O)CCC/C=C\C[C@@H]1[C@@H](/C=C/[C@@H](O)CCc2ccccc2)[C@H](O)C[C@@H]1O [bimatoprost]
logP [1]: 3.4

C/C(=C\C(=O)OCCCCCCCCC(=O)O)C[C@@H]1OC[C@H](C[C@@H]2O[C@H]2[C@@H](C)[C@H](C)O)[C@@H](O)[C@H]1O [mupirocin]
logP [1]: 2.2

CC(=O)N1CCN(c2ccc(OCC3COC(Cn4ccnc4)(c4ccc(Cl)cc4Cl)O3)cc2)CC1 (stereo not drawn) [ketoconazole]
Ki [2, 9]: 7.94 µM
Ki [3, 10]: 4.57 µM

COc1ccccc1OCCNCC(O)COc1cccc2[nH]c3ccccc3c12 (stereo not drawn) [carvedilol]
logP [1]: 3.1

C[N+](C)(CCCCCC[N+](C)(C)C1c2ccccc2-c2ccccc21)C1c2ccccc2-c2ccccc21 [hexafluronium]
logP [1]: 1.8

C[C@H](Cc1cc2c(c(C(N)=O)c1)N(CCCO)CC2)NCCOc1ccccc1OCC(F)(F)F [silodosin]
logP [1]: 3.0

O=c1[nH]c2ccccc2n1C1CCN(CCCC(c2ccc(F)cc2)c2ccc(F)cc2)CC1 [pimozide]
logP [1]: 6.3

CC[N+](CC)(CC)CCOc1cccc(OCC[N+](CC)(CC)CC)c1OCC[N+](CC)(CC)CC [gallamine]
Ki [2, 9]: 2.19 µM
Ki [3, 10]: 0.794 µM

CC(C)OC(=O)CCC/C=C\C[C@@H]1[C@@H](/C=C/[C@@H](O)COc2cccc(C(F)(F)F)c2)[C@H](O)C[C@@H]1O [travoprost]
logP [1]: 4.6

C=CCNc1nc(NCC=C)nc(N2CCN(C(c3ccc(F)cc3)c3ccc(F)cc3)CC2)n1 [almitrine]
logP [1]: 4.1

CC1=C(C/C=C(\C)CCC[C@H](C)CCC[C@H](C)CCCC(C)C)C(=O)c2ccccc2C1=O [phytonadione]
logP [1]: 9.3

CC(C)(C)c1ccc(C(O)CCCN2CCC(C(O)(c3ccccc3)c3ccccc3)CC2)cc1 (stereo not drawn) [terfenadine]
logP [1]: 5.9
Ki [3, 10]: 11 µM

N#Cc1ccc2[nH]cc(CCCCN3CCN(c4ccc5oc(C(N)=O)cc5c4)CC3)c2c1 [vilazodone]
logP [1]: 4.2

CC(=O)N(O)CCCCCNC(=O)CCC(=O)N(O)CCCCCNC(=O)CCC(=O)N(O)CCCCCN [deferoxamine]
logP [1]: 0.9

CC[N+](CC)(CCNC(=O)C(=O)NCC[N+](CC)(CC)Cc1ccccc1Cl)Cc1ccccc1Cl [ambenonium]
logP [1]: 2.3

CCCCCCCCCCC[C@@H](C[C@@H]1OC(=O)[C@H]1CCCCCC)OC(=O)[C@H](CC(C)C)NC=O [orlistat]
logP [1]: 7.5
Log Kocc hM2 ([4]; Table 4, affinity estimate at [3H]-NMS-occupied receptor, one time point 20 min, mean ± SEM): completely inactive
Kd [4]: > 1000 µM
Ki [2, 9]: > 100 µM
Ki [3, 10]: > 100 µM
Ki [5]: > 100 µM
Ki [6]: > 100 µM
Ki [7]: > 100 µM

CCOC(=O)CN[C@@H](C(=O)N1CC[C@H]1C(=O)NCc1ccc(/C(N)=N\O)cc1)C1CCCCC1 [ximelagatran]
logP [1]: 1.4

CC(C)(C)C(=O)OCOP(=O)(COCCn1cnc2c(N)ncnc21)OCOC(=O)C(C)(C)C [adefovir dipivoxil]
logP [1]: 1.5

CS(=O)(=O)CCNCc1ccc(-c2ccc3ncnc(Nc4ccc(OCc5cccc(F)c5)c(Cl)c4)c3c2)o1 [lapatinib]
logP [1]: 5.2

COCCCOc1cc(C[C@@H](C[C@H](N)[C@@H](O)C[C@H](C(=O)NCC(C)(C)C(N)=O)C(C)C)C(C)C)ccc1OC [aliskiren]
logP [1]: 3.3
Ki [2, 9]: > 100 µM
Ki [3, 10]: > 100 µM
pKi values (muscarinic subtypes overall) [8]: devoid of affinity for all muscarinic receptors

CC(C)N1CCN(c2ccc(OCC3COC(Cn4cncn4)(c4ccc(Cl)cc4Cl)O3)cc2)CC1 (stereo not drawn) [terconazole]
logP [1]: 4.5

CC(C)OC(=O)CCC/C=C\C[C@@H]1[C@@H](CC[C@@H](O)CCc2ccccc2)[C@H](O)C[C@@H]1O [latanoprost]
logP [1]: 4.2

CN(CCCCCCCCCCN(C)C(=O)Oc1cccc([N+](C)(C)C)c1)C(=O)Oc1cccc([N+](C)(C)C)c1 [demecarium]
logP [1]: 0.6

N=C(N)c1ccc(/N=N/Nc2ccc(C(=N)N)cc2)cc1 [diminazene]
Kd [4]: 155 µM
Ki [2, 9]: 4.79 µM
Ki [3, 10]: 8.91 µM
Ki [5]: 3.16 µM
Ki [6]: 4.79 µM
Ki [7]: 5.62 µM
pKi values (muscarinic subtypes overall) [8]: around 5

OCc1cc(C(O)CNCCCCCCOCCCCc2ccccc2)ccc1O (stereo not drawn) [salmeterol]
logP [1]: 3.8
Ki [2, 9]: 12.6 µM
Ki [3, 10]: 9.77 µM
Ki [5]: 3.24 µM
Ki [6]: 12 µM

C[n+]1ccc(-c2cc[n+](C)cc2)cc1 [paraquat]
Ki [2]: 14.8 µM
Ki [3]: > 100 µM
Ki [7]: 23.4 µM

CCCCC[C@H](O)/C=C/[C@H]1[C@H](O)CC(=O)[C@@H]1C/C=C\CCCC(=O)O [dinoprostone]
logP [1]: 2.8

CC(C)COCC(CN(Cc1ccccc1)c1ccccc1)N1CCCC1 (stereo not drawn) [bepridil]
logP [1]: 5.2
